Test results taken from the supplement of paper PMC10307832.

Key:
Experiment in all cases: relative viability (nuclei count vs DMSO), 5 days (fraction); higher = more cells survive
Ponatinib + Navitoclax = compound: Cc1ccc(C(=O)Nc2ccc(CN3CCN(C)CC3)c(C(F)(F)F)c2)cc1C#Cc1cnc2cccnn12 [Ponatinib] + CC1(C)CCC(c2ccc(Cl)cc2)=C(CN2CCN(c3ccc(C(=O)NS(=O)(=O)c4ccc(N[C@H](CCN5CCOCC5)CSc5ccccc5)c(S(=O)(=O)C(F)(F)F)c4)cc3)CC2)C1 [Navitoclax] (partner 0.5 µM)
How it was run: (§1)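 Medians of duplicate plates are given as relative viability. That measure is the nuclei count in treated wells divided by the count in vehicle wells. Counts were taken on 4× images of lung cancer cell lines in 1536-well plates, 5 days after pin-tool dosing the day after seeding with one drug alone or a fixed anchor-drug dose plus five library-drug doses (not always all listed) in √10 steps.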

Ponatinib + Phenformin = compound: Cc1ccc(C(=O)Nc2ccc(CN3CCN(C)CC3)c(C(F)(F)F)c2)cc1C#Cc1cnc2cccnn12 [Ponatinib] + N=C(N)NC(=N)NCCc1ccccc1 [Phenformin] (partner 250 µM)
How it was run: as §1

Pazopanib + Luminespib = compound: Cc1ccc(Nc2nccc(N(C)c3ccc4c(C)n(C)nc4c3)n2)cc1S(N)(=O)=O [Pazopanib] + CCNC(=O)c1noc(-c2cc(C(C)C)c(O)cc2O)c1-c1ccc(CN2CCOCC2)cc1 [Luminespib] (partner 0.01 µM)
How it was run: as §1

Pazopanib + Alpelisib = compound: Cc1ccc(Nc2nccc(N(C)c3ccc4c(C)n(C)nc4c3)n2)cc1S(N)(=O)=O [Pazopanib] + Cc1nc(NC(=O)N2CCC[C@H]2C(N)=O)sc1-c1ccnc(C(C)(C)C(F)(F)F)c1 [Alpelisib] (partner 2 µM)
How it was run: as §1

| Cell Line | relative viability (Ponatinib + Navitoclax; first compound 0.002 µM) | relative viability (Ponatinib + Navitoclax; first compound 0.006325 µM) | relative viability (Ponatinib + Navitoclax; first compound 0.06325 µM) | relative viability (Ponatinib + Navitoclax; first compound 0.2 µM) | relative viability (Ponatinib + Phenformin; first compound 0.002 µM) | relative viability (Ponatinib + Phenformin; first compound 0.006325 µM) | relative viability (Ponatinib + Phenformin; first compound 0.06325 µM) | relative viability (Ponatinib + Phenformin; first compound 0.2 µM) | relative viability (Pazopanib + Luminespib; first compound 0.01 µM) | relative viability (Pazopanib + Luminespib; first compound 0.03162 µM) | relative viability (Pazopanib + Luminespib; first compound 0.1 µM) | relative viability (Pazopanib + Luminespib; first compound 0.3162 µM) | relative viability (Pazopanib + Luminespib; first compound 1 µM) | relative viability (Pazopanib + Alpelisib; first compound 0.01 µM) | relative viability (Pazopanib + Alpelisib; first compound 0.03162 µM) | relative viability (Pazopanib + Alpelisib; first compound 0.1 µM) | relative viability (Pazopanib + Alpelisib; first compound 0.3162 µM) | relative viability (Pazopanib + Alpelisib; first compound 1 µM) |
| --- | --- | --- | --- | --- | --- | --- | --- | --- | --- | --- | --- | --- | --- | --- | --- | --- | --- | --- |
| NCI-H441 | 0.638 | 0.42 | 0.554 | 0.596 | 0.818 | 0.866 | 0.941 | 0.697 | 0.343 | 0.485 | 0.311 | 0.274 | 0.317 | 0.71 | 0.73 | 0.987 | 0.655 | 0.728 |
| NCI-H460 | 1.04 | 1.05 | 1.24 | 1.06 | 0.489 | 0.501 | 0.549 | 0.573 | 0.0281 | 0.0326 | 0.033 | 0.0276 | 0.0432 | 0.432 | 0.529 | 0.52 | 0.531 | 0.6 |
| NCI-H520 | 0.946 | 1.1 | 0.922 | 0.646 | 0.392 | 0.552 | 0.291 | 0.18 | 0.234 | 0.235 | 0.227 | 0.218 | 0.214 |  | 1.04 | 0.884 | 0.873 | 0.816 |
| NCI-H596 | 0.845 | 0.969 | 1.03 | 0.733 | 0.621 | 0.82 | 0.7 | 0.568 |  | 1.05 | 1.02 | 0.908 | 1.19 | 0.473 | 0.479 | 0.487 | 0.457 | 0.513 |
| NCI-H647 | 1.04 | 1.07 | 1.21 | 0.935 | 0.413 | 0.626 | 0.699 | 0.42 | 0.244 | 0.124 | 0.199 | 0.217 | 0.14 | 1.37 | 1.31 | 1.35 | 1.19 | 1.11 |
| NCI-H727 | 0.612 | 0.53 | 0.472 | 0.523 | 0.537 | 0.507 | 0.605 | 0.532 | 0.346 | 0.634 | 0.381 | 0.266 | 0.262 | 0.634 | 0.693 | 0.637 | 0.664 | 0.717 |
| NCI-H838 | 1.1 | 1.21 | 1.19 | 0.979 | 0.567 | 0.715 | 0.527 | 0.442 | 0.351 | 0.351 | 0.282 | 0.21 | 0.322 | 1.01 | 1.02 | 1.07 | 1.08 | 1.11 |
| NCI-H1355 | 0.984 | 1.08 | 1.17 | 1.08 | 0.44 | 0.467 | 0.491 | 0.452 | 0.695 | 0.709 | 0.816 | 0.675 | 0.838 |  | 0.765 | 0.99 | 0.871 | 0.849 |
| NCI-H1395 |  | 1.15 | 1.09 | 0.977 | 0.417 | 0.432 | 0.386 | 0.377 | 0.566 | 0.588 | 0.642 | 0.781 | 0.62 | 1.02 | 1.03 | 1.02 | 1.12 | 1.17 |
| NCI-H1437 | 1.06 | 1.08 | 1.22 | 1.08 | 0.293 | 0.334 | 0.322 | 0.302 | 1.25 | 1.16 | 1.13 | 1.11 | 1.07 | 0.938 | 1.02 | 0.964 | 0.938 | 1.05 |
| NCI-H1651 | 1.01 | 1.06 | 1.25 | 1.06 | 0.301 | 0.373 | 0.299 | 0.265 | 0.853 | 0.869 | 0.785 | 0.741 | 0.878 | 0.956 | 1.08 | 0.913 | 0.88 | 1.13 |
| NCI-H1666 | 0.94 | 1.15 | 1.18 | 0.979 | 0.564 | 0.538 | 0.564 | 0.585 | 1.03 | 1.08 | 0.99 | 1.06 | 1.06 | 1.07 | 1.06 | 1.02 | 0.954 | 1.16 |
| NCI-H1734 | 0.805 | 0.828 | 0.877 | 0.739 | 0.395 | 0.393 | 0.347 | 0.303 | 0.18 | 0.207 | 0.182 | 0.179 | 0.208 | 0.632 | 0.702 | 0.743 | 0.65 | 0.769 |
| NCI-H1755 | 0.962 | 0.947 | 1.02 | 0.803 | 0.561 | 0.599 | 0.614 | 0.565 | 0.422 | 0.42 | 0.261 | 0.448 | 0.527 | 0.814 | 0.906 | 0.917 | 0.93 | 0.914 |
| NCI-H1792 | 0.609 | 0.648 | 0.582 | 0.624 | 0.268 | 0.22 | 0.354 | 0.205 |  | 0.394 | 0.476 | 0.423 | 0.422 |  | 0.703 | 0.748 | 0.69 | 0.69 |
| NCI-H1793 | 0.495 | 0.422 | 0.54 | 0.478 | 0.33 | 0.324 | 0.397 | 0.326 |  | 0.235 | 0.198 | 0.186 | 0.235 |  | 0.687 | 0.62 | 0.914 | 0.732 |
| NCI-H1915 | 0.779 | 0.795 | 0.772 | 0.746 | 0.332 | 0.363 | 0.371 | 0.356 | 0.871 | 0.805 | 0.889 | 0.701 | 0.699 | 1.06 | 1.11 | 0.971 | 1.04 | 0.952 |
| NCI-H1944 | 1.04 | 1.09 | 1.2 | 1.02 | 0.204 | 0.202 | 0.209 | 0.186 |  | 0.784 | 0.771 | 0.86 | 0.857 | 0.751 | 0.838 | 0.839 | 0.863 | 0.982 |
